Assay results published in patent publication US20200405708A1, “TREATMENT OF HEREDITARY ANGIOEDEMA” (Attune Pharmaceuticals, Inc., priority 2018, published 2020).
Values joined by “and” are separate entries in the source; they are usually repeats but may differ in a detail not shown here. Equal entries are not always repeated. “Also recorded” adds a separate entry of the source. Values belong to the compound of their own block, whether it stands above or below them.

What was measured:
[1] = 14-day non-GLP rat and monkey toxicology studies; assay type: in vivo; settings: daily doses of 100 or 300 mg/kg
Protocol: (§1) Selectivity was evaluated by biochemical inhibition on plasma kallikrein relative to other serine proteases, including tissue kallikrein 5, plasmin, Factor Xa, Factor VIIa, thrombin, and tissue plasminogen activator (tPA). Potency was evaluated by biochemical inhibition and contact activation assays in human plasma. Pharmacokinetic exposure was evaluated in monkeys after a single oral administration of Compound A at 15 mg/kg. The no-observed-adverse-effect-level (NOAEL) was evaluated in 14-day non-GLP rat and monkey toxicology studies; animals were given daily doses of 100 or 300 mg/kg.

[2] = recovery of radiolabeled [14C] Compound A after single oral dosing in rats; assay type: in vivo, rat
Protocol: (§2) FIG. 7. A table showing metabolism and pharmacokinetics results of single oral dosing of Compound A. Metabolism study was conducted with radiolabeled [^14C] Compound A.

[3] = safety and tolerability in single-ascending-dose study, healthy male participants; assay type: in vivo, human; settings: all 6 dose cohorts
Protocol: (§3) A randomized, double-blind, placebo-controlled single ascending dose and crossover food effect study
(§4) 48 healthy male participants (6 active:2 placebo in each of the 6 dose cohorts) received a single daily dose of Compound A 50 mg, 100 mg, 150 mg, 200 mg, 400 mg, or 800 mg. Subjects in the 100 mg dose cohort received first dose of Compound A under fasted condition in period 1 and after a 7-day washout, a second dose 30 minutes after the start of a high fat, high caloric meal in period 2. Serial blood draws were collected to calculate PK parameters, including area under the curve (AUC) from time zero to infinity (AUC), maximum concentration (Cmax), time of maximum concentration (Tmax), and half-life. Safety measures including treatment-emergent adverse events (TEAEs) were assessed.

[4] = test system: cytochrome P450 (CYP); test: cytochrome P450 inhibition; assay type: in vitro ADME
[5] = single dose safety pharmacology in rat and monkey; assay type: in vivo
Description: FIG. 9. A table showing safety pharmacology of Compound A single dose in rat and monkey.

[6] = 28-day repeat dose general toxicity study in rats
[7] = pharmacokinetic exposure after single oral dose in monkeys; assay type: in vivo, monkey
Protocol: as §1

[8] = target: T1, plasma kallikrein (Homo sapiens, UniProt P03952); test: contact activation assay in human plasma (ex vivo); assay type: biochemical; set-up: from tissue; host or cells: human plasma
Protocol: as §1
Target sequence in this assay (P03952 391-638 limits assumed): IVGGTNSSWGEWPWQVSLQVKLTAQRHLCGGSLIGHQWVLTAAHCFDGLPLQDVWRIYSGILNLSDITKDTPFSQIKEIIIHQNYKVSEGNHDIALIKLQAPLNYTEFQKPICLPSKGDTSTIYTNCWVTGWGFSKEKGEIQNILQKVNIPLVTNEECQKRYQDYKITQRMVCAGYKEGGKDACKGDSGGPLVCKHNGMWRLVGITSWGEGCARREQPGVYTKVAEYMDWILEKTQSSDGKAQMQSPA
Target sequence in this assay (P03952 20-390 partner limits assumed): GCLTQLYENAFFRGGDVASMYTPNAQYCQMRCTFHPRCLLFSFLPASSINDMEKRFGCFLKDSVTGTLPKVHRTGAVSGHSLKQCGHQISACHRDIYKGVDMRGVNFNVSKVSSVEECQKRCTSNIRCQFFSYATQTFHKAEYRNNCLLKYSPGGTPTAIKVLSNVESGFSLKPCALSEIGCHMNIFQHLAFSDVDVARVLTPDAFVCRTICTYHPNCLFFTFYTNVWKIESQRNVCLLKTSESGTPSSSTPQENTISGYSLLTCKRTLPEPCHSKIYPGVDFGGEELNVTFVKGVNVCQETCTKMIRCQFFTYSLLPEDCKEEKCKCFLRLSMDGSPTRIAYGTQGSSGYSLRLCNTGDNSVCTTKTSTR

[9] = metabolism and pharmacokinetics studies of single oral dosing, all species; assay type: in vivo
Protocol: as §2

[10] = toxicology and genotoxicity studies
Description: FIG. 10. A table showing toxicology/genotoxicity of Compound A.

[11] = single-ascending-dose and food effect pharmacokinetics in healthy male participants; assay type: in vivo; set-up: Mean C24: unit not given here; settings: human; for AUCinf, geometric mean (geometric % CV) / Cmax, geometric mean (geometric % CV): n = 6; for Mean Cmax: in ng/mL; for Mean AUCinf: in ng·h/mL
Protocol: as §3, §4

[12] = 28-day repeat dose general toxicity study in monkeys; assay type: in vivo, monkey
Protocol: FIG. 8. Graphic representation of 28-day repeat exposure in monkey toxicology study (NOAEL (100 mg/kg/day) at Day 28.

[13] = bioavailability after single oral administration, dogs; assay type: in vivo, dog; settings: single oral 30 mg/kg
[14] = bioavailability after single oral administration, monkeys; assay type: in vivo, monkey; settings: single oral 30 mg/kg
[15] = bioavailability after single oral administration, rats; assay type: in vivo, rat; settings: single oral 30 mg/kg
[16] = test system: tissue kallikrein 5, tissue kallikrein 7, tissue kallikrein 14, plasmin, Factor Xa, Factor VIIa, thrombin, tissue plasminogen activator (tPA); test: selectivity by biochemical inhibition versus other serine proteases
Protocol: as §1

[17] = target: T1, plasma kallikrein; test: biochemical inhibition assay of plasma kallikrein
Protocol: as §1
Target sequence in this assay (P03952 20-638): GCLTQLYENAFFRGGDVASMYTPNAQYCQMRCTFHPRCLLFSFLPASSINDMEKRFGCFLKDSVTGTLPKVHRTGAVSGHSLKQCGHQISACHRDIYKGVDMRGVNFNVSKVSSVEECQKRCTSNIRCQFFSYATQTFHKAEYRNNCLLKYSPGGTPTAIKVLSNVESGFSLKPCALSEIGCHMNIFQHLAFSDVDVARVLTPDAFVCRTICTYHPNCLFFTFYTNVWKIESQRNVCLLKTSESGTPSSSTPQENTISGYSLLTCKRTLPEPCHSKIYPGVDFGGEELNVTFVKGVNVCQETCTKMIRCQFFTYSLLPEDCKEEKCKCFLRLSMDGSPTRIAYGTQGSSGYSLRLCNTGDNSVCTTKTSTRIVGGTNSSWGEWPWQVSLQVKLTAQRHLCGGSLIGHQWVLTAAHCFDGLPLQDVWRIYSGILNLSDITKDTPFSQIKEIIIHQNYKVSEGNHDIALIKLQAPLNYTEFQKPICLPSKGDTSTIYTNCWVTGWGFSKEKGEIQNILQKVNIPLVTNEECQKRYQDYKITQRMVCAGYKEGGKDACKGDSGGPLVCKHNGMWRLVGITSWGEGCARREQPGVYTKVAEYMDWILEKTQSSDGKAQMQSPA

[18] = monkeys, single oral dose 15 mg/kg
[19] = 100 mg, fed (high fat, high caloric meal)

Compound: Cc1cc(N)nc(C)c1CNC(=O)c1ccnc(Cc2ccc3ncc(Cl)cc3c2)c1 [Compound A, N-((6-amino-2,4-dimethylpyridin-3-yl)methyl)-2-((3-chloroquinolin-6-yl)methyl)isonicotinamide]
no-observed-adverse-effect-level (NOAEL) [1]: 300 mg/kg
recovery of radiolabeled compound (in words) [2]: comprehensive recovery of radiolabeled Compound A
recovery ([2]; intact and bile duct cannulated rats): 99%
drug-related TEAEs and serious AEs [3]: No drug-related TEAEs and no serious AEs; also recorded: no moderate or severe TEAEs, no drug-related TEAEs, no SAEs, and no dose limiting toxicity
safety and tolerability (in words) [3]: generally safe and well tolerated
severity of TEAEs [3]: all TEAEs were mild (grade 1)
number of TEAEs observed ([3]; 50-800 mg single dose): 29
inhibition of P450 enzymes [4]: does not significantly inhibit P450 enzymes
mortality or adverse effects on CNS, respiratory, cardiovascular functions [5]: no mortality or adverse effects were observed on central nervous system, respiratory, and cardiovascular functions
findings at high-dose level ([6]; 300 mg/kg/day, not considered adverse): decreases in body weight and food consumption
NOAEL ([6]; 28-day repeat dose): 300 mg/kg/day
24-h exposure relative to EC90 ([7]; monkey, in vivo, po, 15 mg/kg): 4 fold
Cmax exposure relative to EC90 ([7]; monkey, in vivo, po, 15 mg/kg): 25 fold
24-hour exposure (C24) relative to EC50 [7, 18]: 30 fold
Cmax exposure relative to EC50 [7, 18]: > 180 ×
fold below the no-observed-adverse-effect-level (NOAEL) ([7]; single dose 15 mg/kg): 20 fold
fold more potent than C1-INH at inhibiting plasma kallikrein ([8]; contact activation assay): 11 fold and ~10 fold
EC50 ([8]; human plasma): 8.2 nM
EC90 ([8]; human plasma): 61.6 nM
bioavailability (in words) [9]: good bioavailability in all species
genotoxicity or coagulation issues [10]: no genotoxicity or coagulation issues were noted
AUCinf % Ratio, fed vs. fasted ([11]; 100 mg): 150.3%
Cmax % Ratio, fed vs. fasted ([11]; 100 mg): 128.5%
AUCinf, geometric mean (geometric % CV) ([11]; 100 mg, fasted): 2573 (135.1) ng*hr/mL
Cmax, geometric mean (geometric % CV) ([11]; 100 mg, fasted): 297 (236.1) ng/mL
AUCinf, geometric mean (geometric % CV) [11, 19]: 3866 (16.1) ng*hr/mL
Cmax, geometric mean (geometric % CV) [11, 19]: 382 (35.8) ng/mL
food effect on PK ([11]; 100 mg, high fat meal vs fasted): Minimal food effect
dose proportionality of AUCinf and Cmax / systemic exposure ([11]; 50-800 mg, fasted): increased proportionally with dose; also recorded: largely proportional to dose
AUCinf, mean (% CV) ([11]; fasted, 50 mg): 2056 (20.5)^ ng*hr/mL
Cmax, mean (% CV) ([11]; fasted, 50 mg): 244 (20.1) ng/mL
Half-Life, mean (% CV) ([11]; fasted, 50 mg): 6.5 (24.1) Hours
Tmax, mean (% CV) ([11]; fasted, 50 mg): 1.8 (43.3) Hours
AUCinf, mean (% CV) ([11]; fasted, 100 mg): 3325 (47.3) ng*hr/mL
Cmax, mean (% CV) ([11]; fasted, 100 mg): 449 (59.3) ng/mL
Half-Life, mean (% CV) ([11]; fasted, 100 mg): 8.0 (33.0) Hours
Tmax, mean (% CV) ([11]; fasted, 100 mg): 2.8 (109.7) Hours
AUCinf, mean (% CV) ([11]; fasted, 150 mg): 8569 (37.9)^ ng*hr/mL
Cmax, mean (% CV) ([11]; fasted, 150 mg): 848 (33.9) ng/mL
Half-Life, mean (% CV) ([11]; fasted, 150 mg): 9.7 (15.4) Hours
Tmax, mean (% CV) ([11]; fasted, 150 mg): 1.9 (19.6) Hours
Half-Life, mean (% CV) ([11]; fasted, 200 mg): 9.8 (11.3) Hours
Tmax, mean (% CV) ([11]; fasted, 200 mg): 2.3 (50.2) Hours
AUCinf, mean (% CV) ([11]; fasted, 200 mg (5 subjects)): 8382 (30.2)^ ng*hr/mL
Cmax, mean (% CV) ([11]; fasted, 200 mg (5 subjects)): 693 (43.0) ng/mL
AUCinf, mean (% CV) ([11]; fasted, 400 mg): 14010 (21.1) ng*hr/mL
Cmax, mean (% CV) ([11]; fasted, 400 mg): 1351 (18.8) ng/mL
Half-Life, mean (% CV) ([11]; fasted, 400 mg): 9.5 (9.9) Hours
Tmax, mean (% CV) ([11]; fasted, 400 mg): 2.4 (57.7) Hours
AUCinf, mean (% CV) ([11]; fasted, 800 mg): 30180 (35.7) ng*hr/mL
Cmax, mean (% CV) ([11]; fasted, 800 mg): 3015 (32.0) ng/mL
Half-Life, mean (% CV) ([11]; fasted, 800 mg): 9.0 (9.9) Hours
Tmax, mean (% CV) ([11]; fasted, 800 mg): 2.9 (33.3) Hours
Mean C24 ([11]; fasted, dose 50): 19.3
Mean Cmax ([11]; fasted, dose 50): 244
Mean AUCinf ([11]; fasted, dose 50): 2056
Mean C24 ([11]; fasted, dose 100): 27.7
Mean Cmax ([11]; fasted, dose 100): 449
Mean AUCinf ([11]; fasted, dose 100): 3325
Mean C24 ([11]; fasted, dose 150): 83.6
Mean Cmax ([11]; fasted, dose 150): 848
Mean AUCinf ([11]; fasted, dose 150): 8569
Mean C24 ([11]; fasted, dose 200): 69.2
Mean Cmax ([11]; fasted, dose 200): 693
Mean AUCinf ([11]; fasted, dose 200): 8382
Mean C24 ([11]; fasted, dose 400): 124.0
Mean Cmax ([11]; fasted, dose 400): 1351
Mean AUCinf ([11]; fasted, dose 400): 14010
Mean C24 ([11]; fasted, dose 800): 274.0
Mean Cmax ([11]; fasted, dose 800): 3015
Mean AUCinf ([11]; fasted, dose 800): 30180
Cmax exposure relative to EC50 ([12]; NOAEL dose, day 28): > 4500 ×
24-h exposure relative to EC90 ([12]; monkey, in vivo, 100 mg/kg/day): 20 fold
Cmax exposure relative to EC90 ([12]; monkey, in vivo, 100 mg/kg/day): > 600 fold
findings at high-dose level ([12]; monkey, in vivo, 300 mg/kg/day): adverse findings in monkeys reversed upon dose reduction to 150 mg/kg/day dose
NOAEL ([12]; monkeys, 28-day repeat dose): 100 mg/kg/day
bioavailability [13]: > 40%
bioavailability [14]: > 40%
bioavailability [15]: > 40%
selectivity for plasma kallikrein versus other closely related serine proteases [16]: > 2000 fold
IC50 [17]: 2.7 nM
IC90 [17]: 16.2 nM
fold more potent than C1-INH at inhibiting plasma kallikrein ([17]; biochemical inhibition assay): 9 fold and ~10 fold

EC50 ([8]; human plasma): 92.4 nM
IC50 [17]: 25.4 nM
IC90 [17]: 157 nM
Compound: C1-INH: C1 inhibitor (C1-esterase inhibitor, serpin), which inhibits the activity of plasma kallikrein; comparator [Compound C1-INH]
